# According to ChEMBL document CHEMBL1275374, “Ligand-based virtual screening and ADME-tox guided approach to identify triazolo-quinoxalines as folate cycle inhibitors” (Bioorg Med Chem, 2010):
# Calls of active or inactive are those of the source. No cut-off for these calls is given here.
# Experiments:
# [1] = molecular target: T1, Thymidylate synthase (Homo sapiens, UniProt P04818); experiment: Inhibition of human thymidylate synthase expressed in Escherichia coli BL21 at 100 uM
# Target sequence in this assay (P04818 2-313 limits assumed): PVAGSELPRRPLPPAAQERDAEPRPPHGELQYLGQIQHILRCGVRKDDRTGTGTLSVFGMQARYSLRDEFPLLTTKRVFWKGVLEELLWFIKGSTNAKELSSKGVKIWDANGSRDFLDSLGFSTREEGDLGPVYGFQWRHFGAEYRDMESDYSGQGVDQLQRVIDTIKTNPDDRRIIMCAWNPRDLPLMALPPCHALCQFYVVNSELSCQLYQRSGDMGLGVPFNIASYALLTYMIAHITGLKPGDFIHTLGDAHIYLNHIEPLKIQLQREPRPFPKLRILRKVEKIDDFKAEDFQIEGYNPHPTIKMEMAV
# [2] = molecular target: T2, Dihydrofolate reductase (Homo sapiens) (UniProt P00374); experiment: Inhibition of human DHFR expressed in Escherichia coli BL21 at 100 uM
# T2 sequence (whole entry): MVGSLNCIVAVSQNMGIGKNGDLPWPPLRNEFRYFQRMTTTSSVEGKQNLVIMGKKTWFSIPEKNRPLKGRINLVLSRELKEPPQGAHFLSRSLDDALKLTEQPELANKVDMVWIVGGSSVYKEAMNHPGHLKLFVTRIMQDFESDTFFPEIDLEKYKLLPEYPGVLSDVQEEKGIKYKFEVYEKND
# [3] = system: Vero; experiment: Cytotoxicity against african green monkey Vero cells after 72 hrs using crystal violet staining by spectrophotometric analysis; assay type: cell-based; conditions: Chlorocebus sabaeus
# [4] = Cytotoxicity against human cDDP-resistant C13 cells after 72 hrs using crystal violet staining by spectrophotometric analysis; assay type: cell-based; conditions: C13, 72 h
# [5] = system: 2008; experiment: Cytotoxicity against human cDDP-sensitive 2008 cells after 72 hrs using crystal violet staining by spectrophotometric analysis; assay type: cell-based; conditions: Homo sapiens, 2008, 72 h
# [6] = molecular target: T1, Thymidylate synthase; experiment: Inhibition of human thymidylate synthase expressed in Escherichia coli BL21 at 50 uM
# Target sequence in this assay (P04818 2-313 limits assumed): as the sequence (P04818 2-313 limits assumed) above
# [7] = system: A2780; experiment: Cytotoxicity against human cDDP-resistant A2780 cells after 72 hrs using crystal violet staining by spectrophotometric analysis; assay type: cell-based; conditions: A2780, 72 h
# [8] = system: A2780; experiment: Cytotoxicity against human cDDP-sensitive A2780 cells after 72 hrs using crystal violet staining by spectrophotometric analysis; assay type: cell-based; conditions: A2780, 72 h
# [9] = system: 2008; experiment: Inhibition of DHFR protein expression in human cDDP-sensitive 2008 cells after 72 hrs by Western blotting; assay type: functional, cell-based
# [10] = system: C13; experiment: Inhibition of DHFR protein expression in human cDDP-resistant C13 cells after 72 hrs by Western blotting; assay type: functional, cell-based
# [11] = system: 2008; experiment: Inhibition of thymidylate synthase protein expression in human cDDP-sensitive 2008 cells after 72 hrs by Western blotting; assay type: functional, cell-based
# [12] = Inhibition of thymidylate synthase protein expression in human cDDP-resistant C13 cells after 72 hrs by Western blotting; assay type: functional, cell-based
# [13] = molecular target: T1, Thymidylate synthase; experiment: Inhibition of thymidylate synthase catalytic activity in human cDDP-sensitive 2008 cells after 72 hrs by Western blotting (reference value: 38.8 +/- 3.9%); assay type: cell-based; conditions: concentration not given here
# Target sequence in this assay (P04818 2-313 limits assumed): as the sequence (P04818 2-313 limits assumed) above
# [14] = molecular target: T1, Thymidylate synthase; experiment: Inhibition of thymidylate synthase catalytic activity in human cDDP-resistant C13 cells after 72 hrs by Western blotting (reference value: 12.9 +/- 0.6%); assay type: cell-based; conditions: concentration not given here
# Target sequence in this assay (P04818 2-313 limits assumed): as the sequence (P04818 2-313 limits assumed) above
# [15] = system: 2008; experiment: Induction of ROS accumulation in human cDDP-sensitive 2008 cells at IC50 concentration after 72 hrs […]; assay type: cell-based; conditions: human, 2008, 72 h
# [16] = Induction of ROS accumulation in human cDDP-resistant C13 cells at IC50 concentration after 72 hrs […]; assay type: cell-based; conditions: c13, 72 h
# [17] = Solubility of the compound in dimethyl sulfoxide; assay type: physicochemical
# [18] = molecular target: T1, Thymidylate synthase; experiment: Inhibition of human thymidylate synthase expressed in Escherichia coli BL21
# Target sequence in this assay (P04818 whole entry): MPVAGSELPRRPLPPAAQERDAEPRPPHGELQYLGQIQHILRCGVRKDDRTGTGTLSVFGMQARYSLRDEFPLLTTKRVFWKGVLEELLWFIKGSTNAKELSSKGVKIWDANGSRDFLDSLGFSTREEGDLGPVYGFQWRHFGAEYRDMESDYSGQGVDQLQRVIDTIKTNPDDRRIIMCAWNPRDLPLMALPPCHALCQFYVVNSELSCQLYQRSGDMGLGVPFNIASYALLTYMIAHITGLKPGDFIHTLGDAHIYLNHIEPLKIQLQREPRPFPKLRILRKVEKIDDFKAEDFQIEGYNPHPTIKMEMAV
# [19] = Cytotoxicity against human Fibroblast at up to 100 uM after 72 hrs using crystal violet staining by spectrophotometric analysis; assay type: cell-based
# [20] = molecular target: T1, Thymidylate synthase; experiment: Inhibition of human thymidylate synthase expressed in Escherichia coli BL21 at 25 uM
# Target sequence in this assay (P04818 2-313 limits assumed): as the sequence (P04818 2-313 limits assumed) above
Compound,IC50 [3],IC50 [4],IC50 [5],inhibition [6],IC50 [7],IC50 [8],other results
FC(F)(F)c1ccc(-c2nnc3c(C(F)(F)F)nc4ccccc4n23)cc1,–,–,–,–,–,–,inhibition [1]: 22%; inhibition [2]: 10%
N#Cc1c(N)n(CCc2ccccc2F)c2nc3ccccc3nc12,9.1 µM,22 µM,18 µM,< 5%,–,–,–
FC(F)(F)c1nc2ccccc2n2c(-c3ccc(Cl)cc3)nnc12,1.2 µM,3.4 µM,2.5 µM,< 5%,4.7 µM,2.3 µM,–
Cc1ccc(-c2nnc3c(C(F)(F)F)nc4ccccc4n23)cc1,> 50 µM,26.7 µM,42.5 µM,–,35.7 µM,33 µM,inhibition [9]: inactive; inhibition [10]: inactive; inhibition [11]: inactive; inhibition [12]: inactive; inhibition [13]: 38.8%; inhibition [14]: 12.9%; Activity [15]: Non-toxic; Activity [16]: Non-toxic
COCCn1cnc2c(c1=O)c1nc3ccccc3nc1n2-c1ccc(Cl)c(Cl)c1,52 µM,36 µM,31 µM,< 5%,–,–,solubility [17]: Insoluble
C=CCn1cnc2c(c1=O)c1nc3ccccc3nc1n2CCCC,–,–,–,< 5%,–,–,solubility [17]: Insoluble
Cc1ccc(S(=O)(=O)N(C)c2nc3ccccc3n3c(-c4ccccc4)nnc23)cc1,–,–,–,70%,–,–,inhibition [2]: inactive
CN1CCN(c2nc3ccccc3n3c(-c4ccccc4)nnc23)CC1,22 µM,> 50 µM,48 µM,–,38 µM,18 µM,inhibition [1]: < 10%; inhibition [2]: 40%
Clc1nc2ccccc2n2c(-c3ccccc3)nnc12,18.2 µM,13 µM,12.5 µM,28%,6 µM,2.5 µM,Ki [18]: 10 µM; Activity [19]: Non-toxic
COc1cc(Nc2nc3cc(C(F)(F)F)ccc3nc2C)cc(OC)c1OC,40.2 µM,14.2 µM,28.8 µM,–,35.3 µM,27.5 µM,–
COc1ccc(C(=O)c2nc3ccccc3nc2N2CCN(C)CC2)cc1,42.4 µM,8.3 µM,18.8 µM,–,27.4 µM,17.4 µM,–
O=C(Nc1cc(C(F)(F)F)ccc1Cl)c1ccc2nccnc2c1,–,50 µM,50 µM,< 5%,–,–,–
Cc1cccc(-c2c3c(=O)n(C)c(=O)n(C)c3c3c(C(F)(F)F)nc4ccccc4n23)c1,100 µM,55 µM,49 µM,< 5%,–,–,–
Cc1ccc(S(=O)(=O)N2CN(c3ccccc3)c3nc4ccccc4nc32)cc1,–,50 µM,50 µM,< 5%,–,–,–
O=C(c1ccco1)N1N=C(c2ccc3nccnc3c2)CC1c1ccccc1 (configuration not stated),–,–,–,< 5%,–,–,inhibition [1]: inactive
Cc1ccc(-c2nc3ccccc3n3cc4c(=O)n(C)c(=O)n(C)c4c23)cc1,100 µM,56 µM,53 µM,< 5%,–,–,solubility [17]: Insoluble
Clc1ccc(Oc2nc3ccccc3n3c(-c4ccc(Cl)cc4)nnc23)cc1,–,–,–,–,–,–,inhibition [20]: 53%; inhibition [2]: inactive
COc1ccc(-c2nc3ccccc3n3cc4c(=O)n(C)c(=O)n(C)c4c23)cc1,–,–,–,< 5%,–,–,solubility [17]: Insoluble
Cc1ccc(-c2nnc3c(N(C)C)nc4ccccc4n23)cc1,–,–,–,–,–,–,inhibition [1]: 41%; inhibition [2]: inactive
O=C(CSc1nc2ccccc2nc1-c1ccccc1)N1CCCCCC1,–,–,–,< 5%,–,–,–
COCCn1c(C)nc2c(c1=O)c1nc3ccccc3nc1n2-c1cc(C)cc(C)c1,–,–,–,< 5%,–,–,solubility [17]: Insoluble
FC(F)(F)c1nc2ccccc2n2c(-c3c(Cl)cccc3Cl)nnc12,10 µM,28 µM,37 µM,–,25 µM,27.5 µM,inhibition [9]: inactive; inhibition [10]: inactive; inhibition [11]: inactive; inhibition [12]: inactive; inhibition [13]: 58.9%; inhibition [14]: 32.3%; Activity [15]: Non-toxic; Activity [16]: Non-toxic
Fc1ccccc1-c1nnc2c(C(F)(F)F)nc3ccccc3n12,14 µM,27 µM,17.5 µM,–,11 µM,9 µM,inhibition [1]: 17%; inhibition [2]: 10%
O=C(Nc1cccc(Br)c1)c1ccc2nccnc2c1,–,50 µM,50 µM,< 5%,–,–,–
Cc1cc(Nc2nc3ccccc3n3cnnc23)ccc1Br,20 µM,19 µM,17 µM,< 5%,–,–,–
